Assay [1] deals with T1, hSOS1 (hSOS1-mediated loading of hK-RasG12C-GDP) (Homo sapiens, UniProt Q07889).
T1 construct: hSOS1 (amino acid 564-1049); made in house; host or cells: E. coli BL21 (DE3)
T1 sequence (Q07889 with tags, fused parts or gaps): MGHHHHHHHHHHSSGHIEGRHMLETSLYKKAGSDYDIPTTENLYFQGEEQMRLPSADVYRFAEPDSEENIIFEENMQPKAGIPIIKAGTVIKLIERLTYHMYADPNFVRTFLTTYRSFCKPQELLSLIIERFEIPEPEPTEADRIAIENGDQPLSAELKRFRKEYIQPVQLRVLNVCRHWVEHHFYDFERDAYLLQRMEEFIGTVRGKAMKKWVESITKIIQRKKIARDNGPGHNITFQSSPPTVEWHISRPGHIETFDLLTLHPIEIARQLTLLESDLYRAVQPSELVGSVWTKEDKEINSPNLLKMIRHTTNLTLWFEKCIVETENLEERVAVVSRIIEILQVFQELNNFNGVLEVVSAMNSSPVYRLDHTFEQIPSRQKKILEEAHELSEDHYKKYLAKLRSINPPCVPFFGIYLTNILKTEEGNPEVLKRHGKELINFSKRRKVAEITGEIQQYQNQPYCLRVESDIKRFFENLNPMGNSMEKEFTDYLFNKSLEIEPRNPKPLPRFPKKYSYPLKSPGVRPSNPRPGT
Description: Biochemical Assay 3: hK-RasG12C activation assay by hSOS1 (loading with fluorescent GTP analog, HTRF). The conditions noted are these: no GTP. From the text: Biochemical Assay 3: hK-RasG12C Activation Assay by hSOS1
K-Ras is a small GTPase that can bind GDP and GTP. The guanine nucleotide exchange factor SOS1 catalyzes the activation of K-Ras by promoting the exchange of GDP to GTP. SOS1 binds to K-Ras-GDP thereby opening the GDP-binding pocket to facilitate GDP release. Rebinding of excess nucleotide leads to dissociation of the K-Ras-SOS1 intermediate complex leaving K-Ras loaded with the nucleotide.
This assay quantifies human SOS1-(hSOS1-)mediated loading of human K-Ras^G12C-GDP (hK-RasG12C-GDP) with a fluorescent GTP-analog. Detection of successful loading is achieved by measuring homogenous time-resolved fluorescence resonance energy transfer (HTRF) from antiGST-Terbium (FRET donor) bound to GST-hK-RasG12C (see below) to the loaded fluorescent GTP analog (FRET-acceptor).
The fluorescent GTP-analog EDA-GTP-Dy647P1 (2′/3′-O-(2-Aminoethyl-carbamoyl)-guanosine-5′-triphosphate labelled with Dy647P1 (Dyomics GmbH, Germany)) was synthesized by Jena Biosciences GmbH (Germany) and supplied as a 1 mM aqueous solution.
(§1) The assay buffer contained 10 mM HEPES pH 7.4 (Applichem), 150 mM NaCl (Sigma), 5 mM MgCl2 (Sigma), 1 mM DTT (Thermofisher), 0.05% BSA Fraction V, pH 7.0, (ICN Biomedicals), 0.0025% (v/v) Igepal (Sigma).
Concentrations of protein batches used were optimized to be within the linear range of the HTRF signal. A hRas working solution was prepared in assay buffer containing typically 100 nM GST-hK-RasG12C and 2 nM antiGST-Tb (Cisbio, France). A hSOS1 working solution was prepared in assay buffer containing typically 20 nM hSOS1 and 200 nM EDA-GTP-Dy647P1. An inhibitor control solution was prepared in assay buffer containing 200 nM EDA-GTP-Dy647P1 without hSOS1.
(§2) Fifty nl of a 100-fold concentrated solution of the test compound in DMSO were transferred into a black microtiter test plate (384 or 1536, Greiner Bio-One, Germany) For this, either a Hummingbird liquid handler (Digilab, Mass., USA) or an Echo acoustic system (Labcyte, Calif., USA) was used.
All steps of the assay were performed at 20° C. A volume of 2.5 μl of the hRas working solution was added to all wells of the test plate using a Multidrop dispenser (Thermo Labsystems). After 10 min. preincubation, 2.5 μl of the hSOS1 working solution were added to all wells except for those wells at the side of the test plate that were subsequently filled with 2.5 μl of the inhibitor control solution. After […] incubation the fluorescence was measured with a Pherastar (BMG, Germany) using the HTRF module (excitation 337 nm, emission 1: 620 nm, emission 2:665 nm).
(§3) IC50 values were calculated by 4-Parameter fitting using a commercial software package (Genedata Screener, Switzerland).
Background: In TR-FRET formats the signal depends on donor and acceptor labels being close together.

Assay [2] concerns the target T2, hSOS1 (hSOS1-mediated nucleotide exchange of hK-RasG12C) (Homo sapiens, UniProt Q07889).
T2 construct: hSOS1 (amino acid 564-1049); made in house; host or cells: E. coli BL21 (DE3)
T2 sequence (Q07889 with tags, fused parts or gaps): T1 sequence (Q07889 with tags, fused parts or gaps)
Briefly: Biochemical Assay 2: hK-RasG12C activation assay by hSOS1 at high GTP concentration (HTRF nucleotide exchange). The conditions noted are these: high GTP (50 μM GTP).
From the text: Biochemical Assay 2: hK-RasG12C Activation Assay by hSOS1 at High GTP Concentration
This assay quantifies human SOS1-mediated nucleotide exchange of human K-Ras^G12C (hK-RasG12C) preloaded with a fluorescent […] and in presence of an excess of free GTP. Loaded hK-RasG12C generates a high HTRF-signal by energy transfer from antiGST-Terbium (FRET donor) bound to hK-Ras to the loaded fluorescent GDP analog (FRET-acceptor). hSOS1 activity exchanges the fluorescent GDP for non-fluorescent GTP and therefore leads to a reduction of the HTRF signal.
The fluorescent GDP-analog EDA-GDP-Dy647P1 (2′/3′-O-(2-Aminoethyl-carbamoyl)-guanosine-5′-diphosphate labelled with Dy647P1 (Dyomics GmbH, Germany)) was synthesized by Jena Biosciences GmbH (Germany) and supplied as a 1 mM aqueous solution.
Concentrations of protein batches used were optimized to be within the linear range of the HTRF signal.
Addition of 20 μl 1 M MgCl2 (Sigma) to final 40 mM and store on ice. Purification into buffer (10 mM HEPES pH 7.4 (Applichem), 150 mM NaCl (Sigma), 5 mM MgCl2 (Sigma)) by use of a PD-Minitrap desalting column (GE Healthcare). Concentration of 1 ml purified hK-Ras-GDP-Dy647 is approx. 4-5 μM.
as §1
A Ras working solution was prepared in assay buffer containing typically 80 nM loaded GST-hK-RasG12C-EDA-GDP-Dy647P1 and 2 nM antiGST-Tb (Cisbio, France).
Alternatively, the inhibitor control solution was prepared by supplementing the hSOS1 working solution with 20 μM of 6,7-dimethoxy-N-[(1R)-1-(1-naphthyl)ethyl]quinazolin-4-amine which was used to calibrate the assay.
as §2
All steps of the assay were performed at 20° C. A volume of 2.5 μl of the Ras working solution was added to all wells of the test plate using a Multidrop dispenser (Thermo Labsystems). After 2 min. preincubation, 2.5 μl of the hSOS1 working solution were added to all wells except for those wells at the side of the test plate that were subsequently filled with 2.5 μl of the inhibitor control solution. After 20 min. incubation the fluorescence was measured with a Pherastar (BMG, Germany) using the HTRF module (excitation 337 nm, emission 1:620 nm, emission 2:665 nm).
as §3

The term IC50 denotes the point on the concentration scale where inhibition reaches its midpoint. A low value points to greater potency in that assay.

As for `CCOc1ncc2nc(C)nc(N[C@H](C)c3cccc(Br)c3)c2n1` [Example 23, N-[(1R)-1-(3-bromophenyl)ethyl]-6-ethoxy-2-methylpyrimido[5,4-d]pyrimidin-4-amine], the IC50 in assay [1] stood at 3.28 µM; in assay [2] it was 4.45 µM.
With `COc1ncc2nc(C)nc(N[C@H](C)c3cccc(Br)c3)c2n1` [Example 24, N-[(1R)-1-(3-bromophenyl)ethyl]-6-methoxy-2-methylpyrimido[5,4-d]pyrimidin-4-amine], the results for the IC50 in assay [1] and in assay [2] were more than 20 µM and 9.71 µM, respectively.
For the molecule `Cc1nc(N[C@H](C)c2cccc(Br)c2)c2nc(Oc3ccccc3)ncc2n1` [Example 25, N-[(1R)-1-(3-bromophenyl)ethyl]-2-methyl-6-phenoxypyrimido[5,4-d]pyrimidin-4-amine], the IC50 in assay [1] and in assay [2] was more than 20 µM in each case.
For the molecule `COCCOc1ncc2nc(C)nc(N[C@H](C)c3cccc(Br)c3)c2n1` [Example 26, N-[(1R)-1-(3-bromophenyl)ethyl]-6-(2-methoxyethoxy)-2-methylpyrimido[5,4-d]pyrimidin-4-amine], the values for the IC50 in assay [1] and in assay [2] were more than 20 µM and 3.04 µM, respectively.
`Cc1nc(N[C@H](C)c2cccc(Br)c2)c2nc(N3CCOCC3)ccc2n1` [Example 27, N-[(1R)-1-(3-bromophenyl)ethyl]-2-methyl-6-(morpholin-4-yl)pyrido[3,2-d]pyrimidin-4-amine]: the IC50 in assay [1] is 10.6 µM; in assay [2], 1.84 µM.
`COc1ccc2nc(C)nc(N[C@H](C)c3cccc(Br)c3)c2n1` [Example 28, N-[(1R)-1-(3-bromophenyl)ethyl]-6-methoxy-2-methylpyrido[3,2-d]pyrimidin-4-amine]: the IC50 in assay [1] and in assay [2] was more than 20 µM each time.
With `CCOc1ccc2nc(C)nc(N[C@H](C)c3cccc(Br)c3)c2n1` [Example 29, N-[(1R)-1-(3-bromophenyl)ethyl]-6-ethoxy-2-methylpyrido[3,2-d]pyrimidin-4-amine], the IC50 in assay [1] and in assay [2] was more than 20 µM each time.
For the molecule `COCCOc1ccc2nc(C)nc(N[C@H](C)c3cccc(Br)c3)c2n1` [Example 30, N-[(1R)-1-(3-bromophenyl)ethyl]-6-(2-methoxyethoxy)-2-methylpyrido[3,2-d]pyrimidin-4-amine], the IC50 in assay [1] is not below 27.8 µM; in assay [2] it was 5.74 µM.
With `Cc1nc(N[C@H](C)c2cccc(Br)c2)c2nc(N(C)C)ccc2n1` [Example 31], the IC50 in assay [1] was more than 20 µM; in assay [2], not below 40 µM.
Take `Cc1nc(N[C@H](C)c2cccc(Br)c2)c2nc(Oc3ccccc3)ccc2n1` [Example 32, N-[(1R)-1-(3-bromophenyl)ethyl]-2-methyl-6-phenoxypyrido[3,2-d]pyrimidin-4-amine]: the IC50 in assay [1] and in assay [2] was more than 20 µM in each case.
Regarding `Cc1nc(N[C@H](C)c2cccc(Br)c2)c2nc(OCc3ccccc3)ccc2n1` [Example 33, 6-(benzyloxy)-N-[(1R)-1-(3-bromophenyl)ethyl]-2-methylpyrido[3,2-d]pyrimidin-4-amine], the IC50 in assay [1] and in assay [2] was more than 20 µM throughout.
`Cc1nc(N[C@H](C)c2cccc(Br)c2)c2cc(F)ncc2n1` [Example 34, N-[(1R)-1-(3-bromophenyl)ethyl]-6-fluoro-2-methylpyrido[3,4-d]pyrimidin-4-amine]: the IC50 in assay [1] and in assay [2] was more than 20 µM each time.
As to `Cc1nc(NC(C)c2ccc(Br)s2)c2cc(F)ncc2n1` (stereo not shown) [Example 35], the IC50 in assay [1] and in assay [2] was more than 20 µM each time.
Turning to `CNCc1ccccc1-c1ccc(C(C)Nc2nc(C)nc3cnc(F)cc23)s1` (stereo not shown) [Example 36, 6-fluoro-2-methyl-N-[1-(5-{2-[(methylamino)methyl]phenyl}thiophen-2-yl)ethyl]pyrido[3,4-d]pyrimidin-4-amine], the IC50 in assay [1] is more than 20 µM; in assay [2], 19 µM.

(Values after patent publication US20220274979A1 (Bayer Pharma Aktiengesellschaft, priority 2018, published 2022).)
